Here are results for 22 molecules from US20050176649A1, “Iap binding peptides and assays for identifying compounds that bind iap” (priority 2001, published 2005).

The target in test [1] is T1, BIR3 domain of XIAP (recombinant XIAP-BIR3, residues 238-358) (Homo sapiens, UniProt P98170).
T1 construct: Recombinant XIAP-BIR3 (residues 238-358); GST (N, cleaved yes); made in house; host or cells: E. coli
Briefly: Fluorescence-based competition assay of tetrapeptide libraries (Example 1). It is filed as binding, mammalian. From the text: Expression and Purification of BIR3. […] The soluble fraction of the GST-BIR3 in the E. coli lysate was purified over a glutathione sepharose column, and further purified by anion exchange chromatography (Mono-Q, Amersham Biosciences). The fusion protein was cleaved by thrombin, and the GST portion was removed by the glutathione sepharose column. The BIR3 protein was further purified over a gel filtration column (Superdex 30, Amersham Biosciences).
Fluorescence Experiments. Luminescence spectra were recorded using a Photon Technologies, Inc. fluorometer with a Xe arc lamp and a PMT detector. […] The buffer used in all of the fluorescence experiments was 50 mM potassium phosphate, 100 mM NaCl, 2 mM 1,4-dithio-DL-threitol (DTT), pH 7.
Assay of Tetrapeptide Libraries. The samples were prepared in a 96 well plate lined with glass tubes, to prevent adsorption of the dye to plastic. The plate was stored on ice in the dark between measurements. […] 390 μL of this stock solution were added to 50 wells of the 96 well plate. 50 μL of the test tetrapeptide solutions were added and mixed immediately prior to taking the emission spectra. The final solutions were 5 μM in both badan and BIR3, and approximately 20-30 μM in the tetrapeptide solutions. […] 50 μL of water was added to these wells, again as controls, to determine the intensity of the unbound dye.
The binding of various tetrapeptide mimics to the BIR3 domain of XIAP was determined using a fluorescence-based competition assay. The assay is based on an environment-sensitive fluorogenic dye molecule, badan. Badan is a dye whose sensitivity to environmental changes has previously been used to probe protein binding interactions. […] As the dye is displaced from the binding pocket by the test molecule, the emission shifts back towards the aquated spectrum.

A further test has as its target T2, BIR3 domain of XIAP (Homo sapiens, UniProt P98170).
T2 construct: Recombinant XIAP-BIR3 (residues 238-358); GST (N, cleaved yes); made in house; host or cells: E. coli
The test is described as follows: Fluorescence displacement assay: AVPC-badan displaced from BIR3 by test tetrapeptide (typical assay, Tables 1 and 2). The settings on record: for K: binding (equilibrium) constant for displacement of AVP-dye, position-4 library, 5 μM dye and protein, larger = greater affinity; for Intensity (470 nm): emission intensity of AVPC-badan with BIR3 and test tetrapeptide, excitation 387 nm, lower = more dye displaced; for Fraction free: fraction of AVPC-badan free (displaced from BIR3), from intensity at 470 nm. It is filed as binding, mammalian. From the text:
The ability to quickly assay small molecules for their effectiveness in disrupting protein-protein interactions is critical to the development of viable drug candidates. One aspect of the present invention comprises an assay to test the binding affinity of a library of tetrapeptide molecules for the BIR3 domain of an inhibitor of apoptosis protein (LAP), particularly the mammalian XIAP. The assay is based on a detectable label, preferably a fluorogenic dye molecule. In preferred embodiments, the fluorophore is attached to a tripeptide, AVP, whose sequence matches the N-terminal three residues of Smac. The general structure of this molecule, therefore, is AVP[X], wherein X is the fluorophore. The molecule is referred to herein as an “AVP-dye”. The AVP-dye packs into the groove of the BIR3, causing a large shift in emission maximum and intensity when the environment of the dye changes from water to the hydrophobic pocket of the protein. If a molecule (e.g. the native Smac protein or a tetrapeptide mimic) displaces the dye, then emission will shift back to the spectrum observed in water. Since the emission intensity is related to the binding of the tetrapeptide, the intensity can be used to estimate the equilibrium constant, K, for displacement of the AVP-dye by the tetrapeptide. The larger the equilibrium constant, the greater affinity the tetrapeptide has for the BIR3.
The aforementioned AVP-dye is used in an assay of test compounds that may, like the Smac tetrapeptide AVPI, bind to the BIR3 domain of XIAP, thereby relieving XIAP-mediated suppression of apoptosis. This is a high-throughput, cell-free assay, that is assembled as follows. A protein comprising the BIR3 domain of an IAP is placed in an assay medium comprising a suitable buffer, as described above. Preferably, this is a recombinant protein comprising the BIR3 domain, but a full IAP protein also may be used. An aliquot of the AVP-dye is added to the reaction mixture, in the presence of the test compound. Controls comprise the BIR3 and the dye in the absence of the test compound and, optionally, BIR3 and the dye in the presence of the naturally occurring tetrapeptide, AVPI. […] Alternatively, a emission spectrum is measured at the selected excitation wavelength. In one type of measurement, the test compound is added and an emission spectrum is measured by scanning from, e.g., 460-480 nm. In another type of measurement, the emission intensity at a particular wavelength, e.g., 470 nm, is measured. […] Thus, the binding affinity of the test compound may be calculated as a function of its ability to displace the dye from the BIR3 domain, according to the following calculation: [formula]
Stock solution of badan, BIR3, and buffer were mixed: 2.5 ml of badan, 1.75 ml BIR3, and 15.25 ml of buffer were mixed in a glass vial which had been chilled to 4° C. Added 390 μL of the stock solution to 50 wells in the pre-chilled 96 well plate (wells A1-E2).
Stock solution of badan and buffer were mixed: 150 μL badan and 1020 μL of buffer were mixed in a small glass vial (also chilled) and added to 3 wells on the plate in 390 μL aliquots (F1-F3).
The 96 well plate was stored over ice in an insulated bucket while the emission spectra of the samples were taken. Fifty μL of the appropriate test solution (or water, for the control experiments) was added with a micropipet, the solution mixed with a Pasteur pipet before adding the sample to the fluorescence cuvette. While one sample was being scanned, the cuvette from the previous scan was washed with EtOH and then next sample was prepared.

For test [2], the target named is Recombinant XIAP-BIR3 (residues 238-358) (UniProt P98170). Briefly: fluorescence competition, displacement of AVPC-badan from BIR3.
Sequence of Recombinant XIAP-BIR3 (residues 238-358) (UniProt P98170) (P98170 238-358 limits assumed): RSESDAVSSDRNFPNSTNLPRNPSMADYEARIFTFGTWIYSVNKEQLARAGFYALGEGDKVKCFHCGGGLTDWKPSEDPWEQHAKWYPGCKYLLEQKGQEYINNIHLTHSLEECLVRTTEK
Test [3] concerns the target T3, Recombinant XIAP-BIR3 (residues 238-358) (UniProt P98170 238-358).
T3 construct: also called BIR3 domain of XIAP; BIR3 protein
The test is described as above.
Procedure: The samples were prepared in a 96 well plate lined with glass tubes, to prevent adsorption of the dye to plastic. The plate was stored on ice in the dark between measurements. A small volume cuvette, with a path length of 2 mm, was used to collect the emission spectra. […] 390 μL of this stock solution were added to 50 wells of the 96 well plate. 50 μL of the test tetrapeptide solutions were added and mixed immediately prior to taking the emission spectra. […] 50 μL of water was added to these wells, again as controls, to determine the intensity of the unbound dye.
The binding of various tetrapeptide mimics to the BIR3 domain of XIAP was determined using a fluorescence-based competition assay. […] As the dye is displaced from the binding pocket by the test molecule, the emission shifts back towards the aquated spectrum.

Residues, ends and D or L forms follow the SMILES beside them.

T1 sequence (P98170 238-358): as the sequence (P98170 238-358 limits assumed) above
T3 sequence (P98170 238-358 limits assumed): as above
T2 sequence (P98170 238-358): as the sequence (P98170 238-358 limits assumed) above

As usually defined, the Kd is the constant that tells how readily two partners part at equilibrium. `CC(C)[C@H](NC(=O)[C@H](C)N)C(=O)N1CCC[C@H]1C(=O)N[C@@H](CC(=O)O)C(N)=O` [AVPD] (H-AVPD-NH2; N-terminus and C-terminus assumed): the Kd in test [1] came to 7300 nM. Further, on BIR3 domain of XIAP, the K came out at 0.1799.
With `CC(C)[C@H](NC(=O)[C@H](C)N)C(=O)N1CCC[C@H]1C(=O)N[C@@H](CCC(=O)O)C(N)=O` [AVPE] (H-AVPE-NH2; N-terminus and C-terminus assumed), in test [1], the Kd was 93000 nM. The same molecule returned a K at BIR3 domain of XIAP of 0.03709.
Consider `CC(C)[C@H](NC(=O)[C@H](C)N)C(=O)N1CCC[C@H]1C(=O)NCC(N)=O` [AVPG] (H-AVPG-NH2; N-terminus and C-terminus assumed), for which the Kd in test [1] was 4700 nM. This molecule showed a K at BIR3 domain of XIAP of 0.08948.
On to `CC(C)[C@H](NC(=O)[C@H](C)N)C(=O)N1CCC[C@H]1C(=O)N[C@@H](Cc1c[nH]cn1)C(N)=O` [AVPH] (H-AVPH-NH2; N-terminus and C-terminus assumed), for which the Kd in test [1] is 7300 nM. On BIR3 domain of XIAP, this molecule returned a K of 0.07521.
In the case of `CC(C)[C@H](NC(=O)[C@H](C)N)C(=O)N1CCC[C@H]1C(=O)N[C@@H](CCCCN)C(N)=O` [AVPK] (H-AVPK-NH2; N-terminus and C-terminus assumed), the Kd in test [1] worked out at 28000 nM. Moreover, the K at BIR3 domain of XIAP turned out to be 0.00702.
On the same counts, the results for `CC(C)C[C@H](NC(=O)[C@@H]1CCCN1C(=O)[C@@H](NC(=O)[C@H](C)N)C(C)C)C(N)=O` [AVPL] (H-AVPL-NH2; N-terminus and C-terminus assumed) are 490 nM and 0.3423.
Take `CSCC[C@H](NC(=O)[C@@H]1CCCN1C(=O)[C@@H](NC(=O)[C@H](C)N)C(C)C)C(N)=O` [AVPM] (H-AVPM-NH2; N-terminus and C-terminus assumed): the Kd in test [1] came out at 2300 nM. In addition, the K on BIR3 domain of XIAP came out at 0.05288.
For `CC(C)[C@H](NC(=O)[C@H](C)N)C(=O)N1CCC[C@H]1C(=O)N1CCC[C@H]1C(N)=O` [AVPP] (H-AVPP-NH2; N-terminus and C-terminus assumed), the Kd in test [1] is 5700 nM. On BIR3 domain of XIAP, this molecule displayed a K of 0.01069.
`CC(C)[C@H](NC(=O)[C@H](C)N)C(=O)N1CCC[C@H]1C(=O)N[C@@H](CO)C(N)=O` [AVPS] (H-AVPS-NH2; N-terminus and C-terminus assumed): the Kd in test [1] came out at 4400 nM. This molecule gave a K at BIR3 domain of XIAP of 0.01304.
For the molecule `CC(C)[C@H](NC(=O)[C@H](C)N)C(=O)N1CCC[C@H]1C(=O)N[C@H](C(N)=O)[C@@H](C)O` [AVPT] (H-AVPT-NH2; N-terminus and C-terminus assumed), the Kd in test [1] was 2100 nM. Besides, the K on BIR3 domain of XIAP turned out to be 0.143.
For `CC(C)[C@H](NC(=O)[C@@H]1CCCN1C(=O)[C@@H](NC(=O)[C@H](C)N)C(C)C)C(N)=O` [AVPV] (H-AVPV-NH2; N-terminus and C-terminus assumed), in that order: 1500 nM and 0.1011.
For `CC(C)[C@H](NC(=O)[C@H](C)N)C(=O)N1CCC[C@H]1C(=O)N[C@@H](Cc1c[nH]c2ccccc12)C(N)=O` [AVPW] (H-AVPW-NH2; N-terminus and C-terminus assumed), in test [1], the Kd was 110 nM. For the same molecule, on BIR3 domain of XIAP, the K is listed as 1.0817, the “Intensity (470 nm)” value came out at 23435 and the Fraction free came out at 0.9418.
For the molecule `CC(C)[C@H](NC(=O)[C@H](C)N)C(=O)N1CCC[C@H]1C(=O)N[C@@H](Cc1ccc(O)cc1)C(N)=O` [AVPY] (H-AVPY-NH2; N-terminus and C-terminus assumed), in test [1], the Kd was 300 nM. Also, on BIR3 domain of XIAP, the K was 1.1692, the “Intensity (470 nm)” value came out at 39093 and the Fraction free is recorded as 0.8657.
Regarding AbuVPI (peptide), in test [2], the Fraction free was 0.887 and the Intensity (470 nm) came to 34800.

B1: AIPI (peptide)
peptide: AIPI
notes: Synthetic tetrapeptide
B1: the Kd in test [3] was 390 nM.

B2: AYPI (peptide)
peptide: AYPI
notes: Synthetic tetrapeptide
As for B2, the equilibrium dissociation constant (Kd) in test [3] turned out to be 590 nM.

B3: AMPI (peptide)
peptide: AMPI
notes: Synthetic tetrapeptide
Turning to B3, the Kd in test [3] was 730 nM.

B4: ALPI (peptide)
peptide: ALPI
notes: Synthetic tetrapeptide
For the molecule B4, the dissociation constant (Kd) in test [3] is 290 nM.

B5: AKPI (peptide)
peptide: AKPI
notes: Synthetic tetrapeptide
For the molecule B5, in test [3], the Kd stood at 570 nM.

B6: ACPI (peptide)
peptide: ACPI
notes: Synthetic tetrapeptide
For B6, the Kd in test [3] was found to be 650 nM.

B7: AQPI (peptide)
peptide: AQPI
notes: Synthetic tetrapeptide
On to B7, for which the Kd in test [3] was 940 nM.

B8: AFPI (peptide)
peptide: AFPI
notes: Synthetic tetrapeptide
As to B8, the Kd in test [3] is 790 nM.
